Experimental data from patent EP0745595A1, “3-(3-Aryloxyphenyl)-1-(substituted methyl)-s-triazine-2,4,6-oxo or thiotrione herbicidal agents” (American Cyanamid Company, priority 1995, dated 1996).

Assays:
Format in all cases: in vivo
[1] = tested on: GLYCINE MAX(L) MERR. CV. WILLIAMS; assay: Postemergence herbicidal evaluation, GLXMAW (Soybean, Williams); parameters: key to GLXMAW rating / Herbicidal effect rating, GLXMAW / GLXMAW: 0-9 visual rating scale vs untreated control
In short: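 Soybean seedlings (Williams) were raised in jiffy flats for roughly two weeks, then sprayed postemergence through a nozzle at 40 psi with test compound dispersed in 50/50 acetone/water containing 0.5% TWEEN®20. Treated plants were kept on greenhouse benches under normal care and visually rated on a 0-9 scale four to five weeks later.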

[2] = tested on: ORYZA SATIVA, L. TEBONNET; assay: Postemergence herbicidal evaluation, ORYSAT (Rice, Tebonnet); parameters: key: 0-9 visual rating scale vs untreated control
Experimental: In the tests, seedling plants are grown in jiffy flats for about two weeks. The test compounds are dispersed in 50/50 acetone/water mixtures containing 0.5% TWEEN®20, a polyoxyethylene sorbitan monolaurate surfactant of Atlas Chemical Industries, in sufficient quantities to provide the equivalent of about 0.125 kg to 0.500 kg per hectare of active compound when applied to the plants through a spray nozzle operating at 40 psi for a predetermined time. After spraying, the plants are placed on greenhouse benches and are cared for in the usual manner, commensurate with conventional greenhouse practices. From four to five weeks after treatment, the seedling plants are examined and rated according to the rating system set forth below. Where more than one test is involved for a given compound, the data are averaged.
Plant species employed in these evaluations are reported by header abbreviation, common name and scientific name.
Results of herbicide evaluation are expressed on a rating scale (0-9). The scale is based upon a visual observation of plant stand, vigor, malformation, size, chlorosis and overall plant appearance as compared with a control.

[3] = tested on: ABUTILON THEOPHRASTI, MEDIC.; assay: Postemergence herbicidal evaluation, ABUTH (Velvetleaf);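 note: higher means more injury with 8 approaching complete kill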
In short: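 Velvetleaf (Abutilon theophrasti) seedlings were raised in jiffy flats for about two weeks and then sprayed postemergence. The test compound was dispersed in a 50/50 acetone/water mixture containing 0.5% TWEEN®20 and applied through a nozzle operating at 40 psi. Plants were kept on greenhouse benches and rated 0-9 four to five weeks after treatment.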

ZEA MAYS L. = assay: Preemergence herbicidal evaluation, ZEAMX (Corn, Field)
In short: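 Corn (Zea mays) seeds were mixed with potting soil and planted on about one inch of soil in pint cups, then treated preemergence. Cups were kept on greenhouse benches, watered and maintained conventionally, and after four to five weeks were visually rated on a 0-9 scale versus an untreated control.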

[4] = tested on: ECHINOCHLOA ORYZOIDES (ARD.)FRITSCH; assay: Preemergence weed control under flooded paddy conditions, ECHORC (Watergrass (Calif.)); conditions: pre-weed
In short: (§1)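 Seeds or propagules sown in top 0.5 cm of silt loam in undrained containers, flooded 1.5 to 3 cm throughout. Compounds in aqueous/acetone 50/50 v/v pipetted into flood water at about 0.5, 0.25, 0.125 and 0.063 kg/ha. Visual 0-9 rating versus control after three to four weeks in greenhouse.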

[…], PRESL. = Preemergence weed control under flooded paddy conditions, MOOVA (Monochoria); conditions: pre-weed
In short: as §1

CYPERUS IRIA = assay: Preemergence weed control under flooded paddy conditions, CYPIR (Rice Flatsedge); conditions: pre-weed
In short: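 Seeds or propagating organs of rice flatsedge were planted in the top 0.5 cm of silt loam soil in 32 oz. plastic containers, 10.5 cm across and without drainage holes. Water was kept 1.5 to 3 cm above the soil throughout. Treated containers were kept on greenhouse benches, and herbicidal effect was visually rated on a 0-9 scale against a control.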

CASSIA OBTUSIFOLIA, L. = assay: Preemergence herbicidal evaluation, CASOB (Sicklepod)
In short: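 Seeds of various monocot and dicot plants, including sicklepod, were each mixed with potting soil and sown on roughly one inch of soil in separate pint cups for preemergence testing. Treated cups were kept on greenhouse benches, watered and maintained conventionally. Four to five weeks after treatment, each cup was visually rated on a 0-9 scale against a control.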

SAGITTARIA PYGMAEA, L. = assay: Preemergence weed control under flooded paddy conditions, SAGPY (Arrowhead (Pygmaea)); conditions: pre-weed
In short: as §1

[5] = tested on: CYPERUS SEROTINUS, ROTTB.; assay: Preemergence weed control under flooded paddy conditions, CYPSE (Flatsedge); conditions: pre-weed
In short: as §1

Cn1c(=O)[nH]c(=O)n(-c2cc(Oc3c(F)cc(C(F)(F)F)cc3Cl)ccc2[N+](=O)[O-])c1=O [D, reference compound]
GLXMAW ([1]; Rate 0.008 kg/ha): 2.5 | GLXMAW ([1]; Rate 0.016 kg/ha): 4.2 | GLXMAW ([1]; Rate 0.031 kg/ha): 4.5 | GLXMAW ([1]; Rate 0.063 kg/ha): 4.7 | GLXMAW ([1]; Rate 0.125 kg/ha): 5.5 | ORYSAT ([2]; Rate 0.016 kg/ha): 3.8 | ORYSAT ([2]; Rate 0.031 kg/ha): 4.3 | ORYSAT ([2]; Rate 0.063 kg/ha): 4.8 | ORYSAT ([2]; Rate 0.125 kg/ha): 5.3 | ABUTH ([3]; Rate 0.008 kg/ha): 0.0 | ABUTH ([3]; Rate 0.016 kg/ha): 8.3 | ABUTH ([3]; Rate 0.031 kg/ha): 8.7 | ABUTH ([3]; Rate 0.063 kg/ha): 9.0 | ABUTH ([3]; Rate 0.125 kg/ha): 9.0 | ZEAMX (ZEA MAYS L.; Rate 0.031 kg/ha): 0.0 | ZEAMX (ZEA MAYS L.; Rate 0.063 kg/ha): 0.0 | ZEAMX (ZEA MAYS L.; Rate 0.125 kg/ha): 0.0 | ZEAMX (ZEA MAYS L.; Rate 0.250 kg/ha): 0.0 | ECHORC ([4]; Rate 0.031 kg/ha): 9.0 | ECHORC ([4]; Rate 0.063 kg/ha): 9.0 | ECHORC ([4]; Rate 0.125 kg/ha): 9.0 | ECHORC ([4]; Rate 0.250 kg/ha): 9.0

Cn1c(=O)[nH]c(=O)n(-c2cccc(Oc3ccc(C(F)(F)F)cc3Cl)c2)c1=O [E, reference compound]
GLXMAW ([1]; Rate 0.063 kg/ha): 2.0 | GLXMAW ([1]; Rate 0.125 kg/ha): 2.5 | GLXMAW ([1]; Rate 0.250 kg/ha): 3.0 | GLXMAW ([1]; Rate 0.500 kg/ha): 3.5 | ORYSAT ([2]; Rate 0.063 kg/ha): 1.5 | ORYSAT ([2]; Rate 0.125 kg/ha): 2.0 | ORYSAT ([2]; Rate 0.250 kg/ha): 2.0 | ORYSAT ([2]; Rate 0.500 kg/ha): 3.0 | MOOVA ([…], PRESL.; Rate 0.250 kg/ha): 0.0 | MOOVA ([…], PRESL.; Rate 0.500 kg/ha): 0.0 | MOOVA ([…], PRESL.; Rate 1.000 kg/ha): 0.0 | ABUTH ([3]; Rate 0.063 kg/ha): 4.0 | ABUTH ([3]; Rate 0.125 kg/ha): 5.0 | ABUTH ([3]; Rate 0.250 kg/ha): 5.0 | ABUTH ([3]; Rate 0.500 kg/ha): 6.0 | CYPIR (CYPERUS IRIA; Rate 0.250 kg/ha): 0.0 | CYPIR (CYPERUS IRIA; Rate 0.500 kg/ha): 0.0 | CYPIR (CYPERUS IRIA; Rate 1.000 kg/ha): 0.0 | CASOB (CASSIA OBTUSIFOLIA, L.; Rate 0.125 kg/ha): 0.0 | CASOB (CASSIA OBTUSIFOLIA, L.; Rate 0.250 kg/ha): 0.0 | CASOB (CASSIA OBTUSIFOLIA, L.; Rate 0.500 kg/ha): 0.0 | CASOB (CASSIA OBTUSIFOLIA, L.; Rate 1.000 kg/ha): 0.0 | SAGPY (SAGITTARIA PYGMAEA, L.; Rate 0.250 kg/ha): 0.0 | SAGPY (SAGITTARIA PYGMAEA, L.; Rate 0.500 kg/ha): 0.0 | SAGPY (SAGITTARIA PYGMAEA, L.; Rate 1.000 kg/ha): 0.0 | ECHORC ([4]; Rate 0.250 kg/ha): 0.0 | ECHORC ([4]; Rate 0.500 kg/ha): 0.0 | ECHORC ([4]; Rate 1.000 kg/ha): 0.0 | CYPSE ([5]; Rate 0.250 kg/ha): 0.0 | CYPSE ([5]; Rate 0.500 kg/ha): 0.0 | CYPSE ([5]; Rate 1.000 kg/ha): 0.0

Cn1c(=O)[nH]c(=O)n(-c2cc(Oc3ccc(C(F)(F)F)cc3Cl)ccc2Cl)c1=O [F, reference compound]
GLXMAW ([1]; Rate 0.016 kg/ha): 3.5 | GLXMAW ([1]; Rate 0.032 kg/ha): 3.5 | GLXMAW ([1]; Rate 0.063 kg/ha): 4.5 | GLXMAW ([1]; Rate 0.125 kg/ha): 4.0 | GLXMAW ([1]; Rate 0.250 kg/ha): 5.5 | GLXMAW ([1]; Rate 0.500 kg/ha): 5.5 | ORYSAT ([2]; Rate 0.016 kg/ha): 1.5 | ORYSAT ([2]; Rate 0.032 kg/ha): 1.5 | ORYSAT ([2]; Rate 0.063 kg/ha): 2.5 | ORYSAT ([2]; Rate 0.125 kg/ha): 3.0 | ORYSAT ([2]; Rate 0.250 kg/ha): 3.0 | ORYSAT ([2]; Rate 0.500 kg/ha): 3.0 | ABUTH ([3]; Rate 0.016 kg/ha): 4.0 | ABUTH ([3]; Rate 0.032 kg/ha): 4.0 | ABUTH ([3]; Rate 0.063 kg/ha): 5.0 | ABUTH ([3]; Rate 0.125 kg/ha): 5.0 | ABUTH ([3]; Rate 0.250 kg/ha): 7.0 | ABUTH ([3]; Rate 0.500 kg/ha): 9.0 | SAGPY (SAGITTARIA PYGMAEA, L.; Rate 0.031 kg/ha): 0.0 | SAGPY (SAGITTARIA PYGMAEA, L.; Rate 0.063 kg/ha): 0.0 | SAGPY (SAGITTARIA PYGMAEA, L.; Rate 0.125 kg/ha): 0.0 | SAGPY (SAGITTARIA PYGMAEA, L.; Rate 0.250 kg/ha): 0.0 | ECHORC ([4]; Rate 0.031 kg/ha): 0.0 | ECHORC ([4]; Rate 0.063 kg/ha): 0.0 | ECHORC ([4]; Rate 0.125 kg/ha): 0.0 | ECHORC ([4]; Rate 0.250 kg/ha): 0.0 | CYPSE ([5]; Rate 0.031 kg/ha): 0.0 | CYPSE ([5]; Rate 0.063 kg/ha): 0.0 | CYPSE ([5]; Rate 0.125 kg/ha): 0.0 | CYPSE ([5]; Rate 0.250 kg/ha): 0.0
